Reference: US7196199B2, “Phenoxypropylamine compounds” (Mitsubishi Pharma Corporation, priority 1999, dated 2007)

Experiments:
5-HT1A receptor [1] = biological target: T1, 5-HT1A receptor (Rattus norvegicus, UniProt P19327); assay: Electrophysical evaluation of agonist/antagonist of 5-HT1A receptor (nystatin perforated patch clamp, dorsal raphe nuclei cell); format: cell-based; design: The isolated nerve cell (dorsal raphe nuclei cell) was subjected to nystatin perforated patch clamp method; endogenous in cells; host or cells: acutely dissociated dorsal raphe nuclei neurons of 2-week-old male Wistar rat; conditions: 10^−7 mol/L, isolated rat dorsal raphe nuclei cell
T1 sequence (P19327 1-422): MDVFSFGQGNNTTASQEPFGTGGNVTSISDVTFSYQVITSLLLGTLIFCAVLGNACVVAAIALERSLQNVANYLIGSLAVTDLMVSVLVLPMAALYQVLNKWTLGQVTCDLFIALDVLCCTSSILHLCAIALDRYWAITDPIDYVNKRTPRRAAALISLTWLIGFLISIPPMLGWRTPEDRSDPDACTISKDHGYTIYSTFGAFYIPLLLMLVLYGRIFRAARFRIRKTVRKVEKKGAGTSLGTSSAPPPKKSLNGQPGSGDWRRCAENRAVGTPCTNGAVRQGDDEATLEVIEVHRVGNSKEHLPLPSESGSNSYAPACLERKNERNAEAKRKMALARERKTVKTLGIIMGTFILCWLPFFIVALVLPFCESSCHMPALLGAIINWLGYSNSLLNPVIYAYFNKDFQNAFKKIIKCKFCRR
Method: The experiment followed the method of Katayama et al (Brain Res.; 745, 283–292, 1997).
The brain of 2-week-old male Wistar rat was extracted, and a brain thin section (thickness 350 μm) containing dorsal raphe nuclei was prepared using a microslicer. The brain thin section was treated in Ringer's solution containing pronase (0.4 mg/mL) and protease type X (0.25 mg/mL) at 30° C. for 25 min and 15 min, respectively, and the dorsal raphe nuclei region was micropunched out. The brain thin section punched out was subjected to pipetting in a culture dish filled with the Ringer's solution to isolate the nerve cell. The isolated nerve cell (dorsal raphe nuclei cell) was subjected to nystatin perforated patch clamp method (Akaike & Harata, Jpn. J. Physiol.; 44, 433–437, 1994) and the inward K^+ current induced by the test substance and the like was measured under membrane voltage-clamp condition (VH=−60 mV). For the measurement of the inward K^+ current via the 5-HT1A receptor, an extracellular solution and a patch pipette solution having the following compositions were used simultaneously. • extracellular solution (mmol/L): NaCl, 135; KCl, 20; MgCl2, 1; CaCl2, 2; D-glucose, 10; HEPES, 10; tetrodotoxin, 3×10^−4; LaCl3, 10 • patch pipette solution (mmol/L): KCl, 150; HEPES, 10
To the above-mentioned patch pipette solution was added nystatin. (Sigma, Lot No. 33H0762) to the final concentration of 75 μg/mL before the electric measurement.
The current response was measured with a voltage clamp amplifier (List Medical, L/M-EPC7), and the obtained results were recorded on a chart of a recticorder (Nihondenki Sanei, RECTIHORIZ-8K), digitized by a PCM recording device (NF electric Instruments, RP-882) and videotaped by a VCR (Panasonic, NV-G40).
The administration of the test substance and the like followed a Y-tube method (Murase et al., Brain Res.; 525, 84–91, 1990).
First, 8-OH-DPAT (10^−7 mol/L) was administered to the isolated nerve cell (dorsal raphe nuclei cell) obtained above, and the level of the inward K^+ current response was measured.
8-OH-DPAT was washed out for 2 min from the above-mentioned cells and the test substance and pindolol (reference substance which is an antagonist) were administered for 1 min, and the level of the inward K^+ current response by each of them was measured. From immediately after administration of the test substance or the reference substance, a mixture of 8-OH-DPAT ([…]) and the test substance or reference substance was administered, and the level of the induced inward K^+ current response was measured. The measurement results and the level of the current response in the same cell by 8-OH-DPAT alone were compared, based on which the antagonistic action on the 8-OH-DPAT induction current was considered. Every current response was expressed upon standardizing according to the following calculation equation based on the level of the 8-OH-DPAT (10^−7 mol/L) induction current in the same cell.
The inward K^+ current response inducing action (5-HT1A agonistic action) by the test substance alone was determined from the following equation. inward K^+ current response inducing action (%) by test substance alone=(ITD÷IDPAT)×100 • ITD: level of inward K^+ current response by test substance alone • IDPAT: level of 8-OH-DPAT (10^−7 mol/L) induced inward K^+ current in the same cell
The suppressive effect (5-HT1A antagonistic action) on the 8-OH-DPAT induced inward K^+ current by the test substance was determined according to the following equation. antagonistic action of test substance on 8-OH-DPAT induced inward K^+ current (% of control)=(IMIX÷IDPAT)×100
IMIX: level of 8-OH-DPAT (10^−7 mol/L) induced inward K^+ current in the presence of test substance

5-HT1A receptor [2] = biological target: T1, 5-HT1A receptor; assay: 5-HT1A receptor binding test; conditions: rat hippocampus membrane, (3H)-8-OH-DPAT 2 nM; read-out: 5-HT1A receptor binding Ki value
Method: The experiment was conducted according to the method of M. D. Hall et al (J. Neurochem. 44, 1685–1696 (1985)).
Cryopreserved rat hippocampus was homogenized in a 20-fold wet weight amount of 50 mM Tris-HCl buffer (pH 7.4), and the homogenate was centrifuged at 500×g for 10 min. The supernatant was centrifuged at 40000×g for 10 min and the sediment was incubated at 37° C. for 10 min, which was followed by centrifugation at 40000×g for 10 min. To the sediment was added a 20-fold amount of 50 mM Tris-HCl buffer (pH 7.4) and the mixture was homogenized, which was followed by centrifugation again at 40000×g for 10 min. 50 mM Tris-HCl buffer (pH 7.4, 100-fold volume) containing 1 mM MnCl2 was added to the sediment and the mixture was homogenized, which was used as a membrane solution. To a 96 well plate were successively added a test solution ([…]), (^3H)-8-OH-DPAT ((±)-8-hydroxy-2-(DL-N-propylamino)tetraline, Sigma, lot No. 57H4131) solution (final concentration 2 nM, […]) and the membrane solution (0.45 ml) preincubated at 37° C., and incubated at 37° C. for 12 min. After completion, the reaction mixture was filtered through a GF/B glass filter and the filter was washed 5 times with 50 mM Tris-HCl buffer (pH 7.4). The radioactivity left on the filter was measured with a Top Count. For total binding measurement, 0.005N hydrochloric acid ([…]) was used, and for the measurement of nonspecific binding, a test solution containing WAY-100635 (final concentration […]) instead of the test substance was used. The total binding and nonspecific binding were measured in quadruplicate, and the test substance was measured in duplicate.
The IC50 value was calculated by two-point interpolation and Ki value was calculated according to the following equation using Kd value obtained from each measurement. Ki=IC50/(1+C/Kd)
IC50: concentration of 50% binding inhibition
C: concentration of ligand

5-HT transporter = biological target: T2, 5-HT transporter (Rattus norvegicus, UniProt P31652); assay: 5-HT transporter binding test; conditions: rat brain cortex membrane, (3H) paroxetine 0.2 nmol/L; read-out: 5-HT transporter binding Ki value
T2 construct: Rat brain cortex was homogenized using Polytron; from tissue; host or cells: rat brain cortex membranes
T2 sequence (P31652 whole entry): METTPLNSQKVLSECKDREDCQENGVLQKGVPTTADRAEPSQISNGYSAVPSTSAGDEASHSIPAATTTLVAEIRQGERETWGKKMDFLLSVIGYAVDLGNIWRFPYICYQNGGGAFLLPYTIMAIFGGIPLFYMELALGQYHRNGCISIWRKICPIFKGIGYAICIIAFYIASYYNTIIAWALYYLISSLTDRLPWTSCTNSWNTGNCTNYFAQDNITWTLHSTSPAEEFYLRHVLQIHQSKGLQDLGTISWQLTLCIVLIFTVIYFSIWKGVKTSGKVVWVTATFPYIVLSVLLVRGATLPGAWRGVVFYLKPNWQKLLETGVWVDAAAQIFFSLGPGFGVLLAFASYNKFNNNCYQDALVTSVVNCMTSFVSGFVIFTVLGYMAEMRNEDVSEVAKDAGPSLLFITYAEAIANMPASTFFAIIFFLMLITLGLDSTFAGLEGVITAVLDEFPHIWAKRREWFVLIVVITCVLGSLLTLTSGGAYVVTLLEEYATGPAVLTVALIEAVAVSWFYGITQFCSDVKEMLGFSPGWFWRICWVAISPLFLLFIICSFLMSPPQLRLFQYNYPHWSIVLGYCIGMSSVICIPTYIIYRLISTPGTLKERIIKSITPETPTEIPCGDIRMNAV
Method: Rat brain cortex was homogenized using Polytron in ice-cooled 50 mmol/L Tris-HCl buffer (pH 7.4). After centrifugation at 1000×g and 4° C. for 10 min, the supernatant was transferred to a different centrifugation tube. This was centrifuged at 40000×g and 4° C. for 20 min, and 50 mmol/L Tris-HCl buffer (pH 7.4) was added to the sediment to give a suspension. This was incubated at 37° C. for 10 min, centrifuged at 40000×g and 4° C. for 20 min, and suspended in 50 mmol/L Tris-HCl buffer (pH 7.4) (diluted 100-fold of brain wet weight) containing 120 mmol/L NaCl and 5 mmol/L KCl, which was used as a membrane solution. For binding inhibition test, it was reacted with (^3H) paroxetine prepared to the final concentration of 0.2 nmol/L in a plastic test tube at 25° C. for 90 min. For total binding, a solvent was used and for nonspecific binding, fluvoxamine having a final concentration of 10 μmol/L was used.
Using a cell harvester, the reaction mixture was filtered through a GF/B glass filter treated with 0.1% polyethyleneimine to stop the reaction and washed 3 times with 3 mL of ice-cooled 50 mmol/L Tris-HCl buffer (pH 7.4). The radioactivity was measured using a β plate.

CON(C)C(=O)c1cc2c(OC[C@@H](O)CN3CCC(c4ccc5ccccc5c4)CC3)cccc2o1 [Example 6, (S)-4-(2-hydroxy-3-(4-(naphthalen-2-yl)piperidino)propyloxy)-N-methoxy-N-methylbenzo(b)furan-2-carboxamide]
antagonistic action (% of control) of the test substance on the 8-OH-DPAT induced inward K+ current (5-HT1A receptor [1]; 8-OH-DPAT 10^−7 mol/L): almost nil
agonist/antagonist character at 5-HT1A receptor (5-HT1A receptor [1]): silent antagonists
inward K+ current inducing action (%) by the test substance alone (5-HT1A receptor [1]): almost nil
Ki (5-HT1A receptor [2]): 2.3 nM
Ki (5-HT transporter): 1.1 nM
